Key:
[1] = tested on: human breast cancer cell strain MDA-MB435; assay: In vitro SRB tumor cell growth inhibition (GI50); format: cell-based; details: MDA-MB435 cells
Method: (§1) Human colon cancer cell strains (Colo205 and HCT-116), human breast cancer cell strains (MCF-7 and MDA-MB435), human lung cancer cell strains (A549, 95D and NCI460), human ovarian cancer cell strains (OVCAR-5, OVCAR-8, HO8910 and SKOV-3), human leukemia (HL-60 and K562), human prostate cancer (DU145 and BXPC-3), human uterine cancer (Hela), human pancreatic cancer (PANC-1), human hepatoma (HepG 2) were all obtained from ATCC. Colo205, HL-60, K562 cells were cultured in RPMI 1640 containing 2 mM/L glutamine, 10% FBS, 1.0 mM sodium pyruvate. HCT-116, MCF-7, A549, 95D, HO8910, NCI460, OVCAR-5, OVCAR-8, DU145, BXPC-3, Hela, PANC-1, HepG2 cells were cultured in DMEM containing 2 mM/L glutamine, 10% FBS. MDA-MB435 cells were cultured in L-15 containing 2 mM/L glutamine, 10% FBS. SKOV-3 cells were cultured in McCoy's containing 2 mM/L glutamine, 10% FBS. Colo205, HL-60 and K562 cells were seeded in 96-well plates, 150 μL/well and 8000 cells/well, and the 96-well plates were pre-incubated in an incubator at 37° C. with 5% CO2, 100% relative humidity for 24 hours. HCT-116, MCF-7, NCI460, OVCAR-5, OVCAR-8, Hela, HepG 2 and MDA-MB435 cells were seeded in 96-well plates, 5000 cells/well; A549, 95D, HO8910, DU145, BXPC-3, PANC-1 and SKOV-3 cells were seeded in 96-well plates, 10000 cells/well, and the 96-well plates were pre-incubated in an incubator at 37° C. with 5% CO2, 100% relative humidity for 24 hours, to allow the cells to adhere.
(§2) 50 μL of pre-cooled 50% (mass/volume) TCA was added into the time zero control wells for each cell strain to fix the cells. To other wells, 50 μL of various concentrations of compounds were added, and maintained for 48 h, wherein each drug concentration was in triplicate, and there were blank control wells (cell culture medium without cells), drug-free control wells (with no drugs but the same volume of complete medium) and positive drug BSI-201 control wells, and the plates were incubated in an incubator at 37° C. with 5% CO2, full humidity (100% relative humidity) for 48 hours
(§3) 50 μL pre-cooled 50% (mass/volume) TCA was added onto the surface of the culture medium to fix the cells, which was then placed at 4° C. for 1 h. The supernatant was removed and each well was washed with deionized water for 5 times to remove TCA, serum proteins, etc. After dried in the air, about 100 μL enough amount of 0.4% SRB (formulated with 1% acetic acid) was added into each well, and was placed at room temperature for 20 to 30 min. Liquid in each well was discarded and each well was rapidly washed with 1% acetic acid for five times, to remove unbound dye until the unbound dye was completely rinsed clean. After dried in the air until the moisture was invisible, each well was added 200 μL Tris base to dissolve, shaken on a plate oscillator for 5 min or mixed by beating up and down with a pipette tip, and then measured on the multi-function instruction (M5 Detection System, MD Group Ltd.) with a detection wavelength of 515 nm, zero adjusted with 690 nm blank control.
(§4) The dose-response curve was plotted by XL-fit to determine the GI50 value.

18 tumor cell strains = assay: In vitro efficacy screening, summary over the tumor cell strains; format: cell-based, human; details: in vitro screening; for inhibitory effects on tumor cell proliferation (in words): BSI-201 as positive drug
Method: as §1, §2, §3, §4

[2] = tested on: human lung cancer cell strain NCI-460; assay: In vitro SRB tumor cell growth inhibition (GI50); format: cell-based; details: NCI-460 cells
Method: as §1, §2, §3, §4

[3] = tested on: human colon cancer cell strain HCT-116; assay: In vitro SRB tumor cell growth inhibition (GI50); format: cell-based; details: HCT-116 cells
Method: as §1, §2, §3, §4

[4] = tested on: human breast cancer cell strain MCF-7; assay: In vitro SRB tumor cell growth inhibition (GI50); format: cell-based; details: MCF-7 cells
Method: as §1, §2, §3, §4

human leukemia HL-60 = assay: In vitro SRB tumor cell growth inhibition (GI50); format: cell-based; details: Homo sapiens, HL-60, 48 h, HL-60 cells
Method: as §1, §2, §3, §4

[5] = tested on: human prostate cancer DU145; assay: In vitro SRB tumor cell growth inhibition (GI50); format: cell-based; details: Homo sapiens, DU-145, 48 h, DU145 cells
Method: as §1, §2, §3, §4

[6] = tested on: human ovarian cancer cell strain OVCAR-8; assay: In vitro SRB tumor cell growth inhibition (GI50); format: cell-based; details: OVCAR-8 cells
Method: as §1, §2, §3, §4

[7] = tested on: human lung cancer cell strain 95D; assay: In vitro SRB tumor cell growth inhibition (GI50); format: cell-based; details: 48 h, 95D cells
Method: as §1, §2, §3, §4

| Compound | GI50 ([3]; Homo sapiens, HCT-116, 48 h) [µM] | GI50 ([4]; Homo sapiens, MCF7, 48 h) [µM] | GI50 (human leukemia HL-60) [µM] | efficacy in inhibition of tumor cell proliferation, graded in words against I-1 (18 tumor cell strains) | inhibitory effects on tumor cell proliferation (in words) (18 tumor cell strains) | GI50 ([2]; Homo sapiens, NCI-460, 48 h) [µM] | other results |
| --- | --- | --- | --- | --- | --- | --- | --- |
| C#Cc1ccc(C(=O)NC(=O)OCCC)cc1[N+](=O)[O-] [Compound I-4, N-propoxycarbonyl-4-ethynyl-3-nitrobenzamide] | – | – | – | good effects on inhibition of tumor cell proliferation | have inhibitory effects on tumor cell proliferation | – | GI50 ([1]; Homo sapiens, MDA-MB-435, 48 h): 12.6 µM |
| C#Cc1ccc(C(=O)NC(=O)OCCCC)cc1[N+](=O)[O-] [Compound I-5, N-butoxycarbonyl-4-ethynyl-3-nitrobenzamide] | 17.9 | 10.1 | – | good effects on inhibition of tumor cell proliferation | have inhibitory effects on tumor cell proliferation | 20.1 | – |
| C#Cc1ccc(C(=O)N(C)C)cc1[N+](=O)[O-] [Compound I-10, N,N-dimethyl-4-ethynyl-3-nitrobenzamide] | 18.3 | 12.3 | 3.78 | good effects on inhibition of tumor cell proliferation | have inhibitory effects on tumor cell proliferation | 24.1 | – |
| C#Cc1ccc(C(=O)NC(C)=O)cc1[N+](=O)[O-] [Compound I-11, N-acetyl-4-ethynyl-3-nitrobenzamide] | 12.1 | 10.7 | 2.35 | good effects on inhibition of tumor cell proliferation | have inhibitory effects on tumor cell proliferation | 13.4 | – |
| C#Cc1ccc(C(=O)NC(=O)c2ccccc2)cc1[N+](=O)[O-] [Compound I-13, N-benzoyl-4-ethynyl-3-nitrobenzamide] | – | 25.3 | – | good effects on inhibition of tumor cell proliferation | have inhibitory effects on tumor cell proliferation | – | GI50 ([1]; Homo sapiens, MDA-MB-435, 48 h): 6.24 µM |
| C#Cc1ccc(C(=O)NCCCC)cc1[N+](=O)[O-] [Compound I-19, N-butyl-4-ethynyl-3-nitrobenzamide] | 9.01 | 9.59 | 5.15 | good effects on inhibition of tumor cell proliferation | have inhibitory effects on tumor cell proliferation | 10.1 | – |
| C#Cc1ccc(C(=O)N2CCOCC2)cc1[N+](=O)[O-] [Compound I-22, (4-ethynyl-3-nitrophenyl)(morpholin-4-yl)ketone] | – | 13.4 | – | – | have inhibitory effects on tumor cell proliferation | – | GI50 ([1]; Homo sapiens, MDA-MB-435, 48 h): 6.53 µM |
| C#Cc1ccc(C(N)=O)cc1N=O [Compound I-28, 4-ethynyl-3-nitrosobenzamide] | – | 9.78 | – | good effects on inhibition of tumor cell proliferation | have inhibitory effects on tumor cell proliferation | – | GI50 ([7]; Homo sapiens, 95-D): 18.1 µM; GI50 ([6]; Homo sapiens, OVCAR-8, 48 h): 17.2 µM |
| C#Cc1ccc(C(=O)N2CCN(C)CC2)cc1[N+](=O)[O-].Cl [Compound I-29, (4-ethynyl-3-nitrophenyl)(4-methylpiperazin-1-yl)ketone hydrochloride] | – | – | – | slightly lower than that of I-1 | have inhibitory effects on tumor cell proliferation | – | GI50 ([2]; 48 h, hydrochloride): 28.2 µM; GI50 ([7]; hydrochloride): 15.8 µM; GI50 ([3]; 48 h, hydrochloride): 14.3 µM; GI50 ([1]; 48 h, hydrochloride): 8.44 µM; GI50 ([4]; 48 h, hydrochloride): 11.8 µM; GI50 ([6]; 48 h, hydrochloride): 29.3 µM |

Further lines, with some results ahead:

| GI50 ([3]; Homo sapiens, HCT-116, 48 h) [µM] | GI50 ([4]; Homo sapiens, MCF7, 48 h) [µM] | GI50 (human leukemia HL-60) [µM] | Compound | efficacy in inhibition of tumor cell proliferation, graded in words against I-1 (18 tumor cell strains) | inhibitory effects on tumor cell proliferation (in words) (18 tumor cell strains) | GI50 ([2]; Homo sapiens, NCI-460, 48 h) [µM] | other results |
| --- | --- | --- | --- | --- | --- | --- | --- |
| 13 | – | – | N#Cc1ccc(C(N)=O)cc1[N+](=O)[O-] [Compound I-8, 4-cyano-3-nitrobenzamide] | good effects on inhibition of tumor cell proliferation | have inhibitory effects on tumor cell proliferation | – | GI50 ([1]; Homo sapiens, MDA-MB-435, 48 h): 32.2 µM |
| 22.5 | 6.7 | 9.71 | C#Cc1ccc(C(=O)NC)cc1[N+](=O)[O-] [Compound I-9, N-methyl-4-ethynyl-3-nitrobenzamide] | good effects on inhibition of tumor cell proliferation | have inhibitory effects on tumor cell proliferation | 11.5 | – |
| – | – | 34.6 | CC#Cc1ccc(C(N)=O)cc1[N+](=O)[O-] [Compound I-12, 4-(1-propynyl)-3-nitrobenzamide] | good effects on inhibition of tumor cell proliferation | have inhibitory effects on tumor cell proliferation | – | – |
| 12 | 9.92 | – | C#Cc1ccc(C(=O)N(CCC)CCC)cc1[N+](=O)[O-] [Compound I-15, N,N-dipropyl-4-ethynyl-3-nitrobenzamide] | slightly lower than that of I-1 | have inhibitory effects on tumor cell proliferation | 17 | GI50 [5]: 2.37 µM |
| 12.9 | 8.21 | 1.27 | C#Cc1ccc(C(=O)N(CCCC)CCCC)cc1[N+](=O)[O-] [Compound I-16, N,N-dibutyl-4-ethynyl-3-nitrobenzamide] | good effects on inhibition of tumor cell proliferation | have inhibitory effects on tumor cell proliferation | 15.5 | – |
| 9.45 | 6.29 | 4.86 | C#Cc1ccc(C(=O)NCCC)cc1[N+](=O)[O-] [Compound I-18, N-propyl-4-ethynyl-3-nitrobenzamide] | good effects on inhibition of tumor cell proliferation | have inhibitory effects on tumor cell proliferation | 7.09 | – |
| 10.9 | 9.5 | – | C#Cc1ccc(C(=O)N2CCC2)cc1[N+](=O)[O-] [Compound I-25] | – | – | 27.7 | GI50 ([6]; Homo sapiens, OVCAR-8, 48 h): 14.4 µM |
| – | 31.6 | – | CNC(=O)c1ccc(C#N)c([N+](=O)[O-])c1 [Compound I-27, N-methyl-4-cyano-3-nitrobenzamide] | good effects on inhibition of tumor cell proliferation | have inhibitory effects on tumor cell proliferation | – | GI50 ([1]; Homo sapiens, MDA-MB-435, 48 h): 29.3 µM |
